Measured values from patent publication US11926619B2, “Certain pladienolide compounds and methods of use” (EISAI R&D MANAGEMENT CO., LTD., priority 2018, dated 2024).

Legend:
[1] = system: Panc 05.04 cells (pancreatic cancer cells; Q699H and K700E mutations in SF3B1); experiment: Cell viability assay (CellTiter-Glo, 72 hr), Panc 05.04 cells; type: cell-based; conditions: Panc 05.04 cells (mutant SF3B1); for Emax: maximum achievable response in tested dose range, negative value = cellular lethality, read-out: Panc 05.04 (mt SF3B1 cells) Emax (%); for GI50: read-out: Panc 05.04 (mt SF3B1 cells), GI50
How it was run: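 Panc 05.04 cells treated 72 hr at 37 °C with 9 compound concentrations (0.1% DMSO), duplicate or triplicate. ATP read by CellTiter-Glo; growth inhibition/viability calculated against a time-zero plate and DMSO control growth. Emax is the maximal response over the tested range, negative values meaning lethality.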

[2] = molecular target: T1, SF3b complexes (Homo sapiens, UniProt O75533+Q7RTV0); experiment: Scintillation proximity assay (SPA) with [3H]-labelled pladienolide probe; type: binding; conditions: wt SF3B1, read-out: SPA (wt SF3B1 cells) IC50
T1 construct: endogenous in cells
Description: Batch immobilization of anti-SF3B1 antibody (MBL) to anti-mouse PVT SPA scintillation beads (PerkinElmer) was prepared as follows: for every 2.5 mg of nuclear extracts, 5 μg anti-SF3B1 antibody and 1.5 mg of beads were mixed in 150 μl PBS. The antibody-bead mixture was incubated for 30 min at RT and centrifuged at 18,000 g for 5 min. 150 μl PBS was used to resuspend every 1.5 mg antibody-bead mixture. The beads were suspended and added to the prepared nuclear extracts. The slurry was incubated for 2 h at 4° C. with gentle mixing. The beads were then collected by centrifuging at 18,000 g for 5 min, and washed twice with PBS+0.1% Triton X-100. After a final centrifugation step, every 1.5 mg of beads was suspended with 150 μl of PBS. The SF3b complexes were tested for [^3H]-labelled pladienolide probe binding ([^3H]-PB), synthesized as previously described (Kotake et al., 2007). 100 μL binding reactions were prepared with 50 μl bead slurry and by adding varying concentrations of PB or PB—OH, and after 30 min pre-incubation, 2.5 nM [^3H]—PB was added. The mixture was incubated for 30 min, and luminescence signals were read using a MicroBeta2 Plate Counter (PerkinElmer). Prism 6 (Graphpad) was used for non-linear regression curve fitting of the data.

[3] = system: WiDr cells (colon cancer cells; wildtype SF3B1); experiment: Cell viability assay (CellTiter-Glo, 72 hr), WiDr cells; type: cell-based; conditions: Homo sapiens; WiDr cells (wildtype SF3B1); read-out: WiDr GI50
How it was run: (§1)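 Cells at 2000/well were exposed to 9 compound concentrations (0.1% DMSO) in duplicate or triplicate for 72 hr at 37 °C. ATP was read by CellTiter-Glo against a time-zero plate and DMSO control growth. Percent growth/viability was plotted against concentration to give Emax; negative values indicate lethality.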

[4] = system: WiDr-R cells (colon cancer cells; chemically-induced SF3B1 R1074H mutant); experiment: Cell viability assay (CellTiter-Glo, 72 hr), resistant WiDr-R cells (counter-screen); type: cell-based; conditions: WiDr-R cells (SF3B1 R1074H mutation, resistant); read-out: WiDr-R GI50
How it was run: as §1

Compound	Emax [1] [%]	GI50 [1] [nM]	IC50 [2] [nM]	GI50 [3] [nM]	GI50 [4] [nM]
C/C(=C\C=C\C(C)c1cccnc1)[C@H]1OC(=O)C[C@H](O)CC[C@@](C)(O)[C@@H](OC(=O)N2CCC(N3CCC(F)(F)CC3)CC2)/C=C/[C@@H]1C (some centres unmarked)	-2.9	94.8	30.9		
C/C(=C\C=C\[C@@H](C)c1ccccn1)[C@H]1OC(=O)C[C@H](O)CC[C@H](C)[C@@H](OC(=O)N(C)C)/C=C/[C@@H]1C	24	1720	142	479	> 10000
C\C(=C/C=C/C=C/[C@@H](C)c1ccccn1)C1OC(=O)C[C@H](O)CC[C@@](C)(O)[C@@H](OC(=O)N2CCN(C3CCCCCC3)CC2)/C=C/[C@@H]1C (some centres unmarked)	11	720	120		
CC(=O)O[C@H]1/C=C/[C@H](C)[C@@H](/C(C)=C/C=C/[C@@H](C)COC(=O)N(C)C)OC(=O)C[C@H](O)CC[C@@]1(C)O	-91.2	74.4	18	46.7	> 10000
C/C(=C\C=C\[C@@H](C)c1ccccn1)[C@H]1OC(=O)C[C@H](O)CC[C@@](C)(O)[C@@H](OC(=O)N2CCN(C3CCCCC3)CC2)/C=C/[C@@H]1C	-94.3	21.4	3.32	21.2	> 1000
C/C(=C\C=C\[C@@H](C)c1ccccn1)[C@H]1OC(=O)C[C@H](O)CC[C@@](C)(O)[C@@H](OC(=O)N2CC3(C2)CN(C2CCCCCC2)C3)/C=C/[C@@H]1C	-41.9	115	71.3	130	> 1000
C/C(=C\C=C\[C@@H](C)c1ccccn1)[C@H]1OC(=O)C[C@H](O)CC[C@@](C)(O)[C@@H](OC(=O)N2CCN(C(C)(C)C)CC2)/C=C/[C@@H]1C	-78.1	66	13.1	76	> 1000
CC(=O)O[C@H]1/C=C/[C@H](C)[C@@H](/C(C)=C/C=C/[C@@H](C)c2ccccn2)OC(=O)C[C@H](O)CC[C@@]1(C)O	-16.1	538	45.1	231	> 10000
C/C(=C\C=C\[C@@H](C)COC(=O)N1CCC[C@H]1CO)[C@H]1OC(=O)C[C@H](O)CC[C@@](C)(O)[C@@H](OC(=O)N2CCN(C3CCCCCC3)CC2)/C=C/[C@@H]1C	-70.4	2.39	7.03	2.73	40.1
CC(=O)O[C@H]1/C=C/[C@H](C)[C@@H](/C(C)=C/C=C/[C@@H](C)COC(=O)N2CCC[C@@H]2C)OC(=O)C[C@H](O)CC[C@@]1(C)O	-90	52.6	27.3	38.1	> 10000
C/C(=C\C=C\[C@@H](C)COC(=O)N1CC[C@H](F)C1)[C@H]1OC(=O)C[C@H](O)CC[C@@](C)(O)[C@@H](OC(=O)N2CCN(C3CCCCCC3)CC2)/C=C/[C@@H]1C	-79.4	1.76	1.93	4.3	> 1000
C/C(=C\C=C\[C@@H](C)COC(=O)N1CC[C@@H](O)C1)[C@H]1OC(=O)C[C@H](O)CC[C@H](C)[C@@H](OC(=O)N2CCN(C)CC2)/C=C/[C@@H]1C	-83.3	3.37	5.43	4.86	> 1000
C/C(=C\C=C\C(C)c1cnccn1)[C@H]1OC(=O)C[C@H](O)CC[C@@](C)(O)[C@@H](OC(=O)N2CCN(C3CCCCCC3)CC2)/C=C/[C@@H]1C (some centres unmarked)	-93.7	22.1	6.37	31.9	> 10000
C/C(=C\C=C\[C@H](C)c1nccc(C)n1)[C@H]1OC(=O)C[C@H](O)CC[C@@](C)(O)[C@@H](OC(=O)N2CCN(C3CCCCCC3)CC2)/C=C/[C@@H]1C	-76.7	101	9.7	125	> 1000
C/C(=C\C=C\[C@@H](C)COC(=O)N1CC[C@@H](N(C)C)C1)[C@H]1OC(=O)C[C@H](O)CC[C@@](C)(O)[C@@H](OC(=O)N2CCN(C3CCCCCC3)CC2)/C=C/[C@@H]1C	-85.4	33	9.7	30.2	3990
C/C(=C\C=C\[C@@H](C)c1ccccn1)[C@H]1OC(=O)C[C@H](O)CC[C@@](C)(O)[C@@H](O)/C=C/[C@@H]1C	49.5	3980	> 1200		

Compound	Emax [1] [%]	GI50 [1] [nM]	IC50 [2] [nM]	GI50 [3] [nM]	GI50 [4] [nM]
C/C(=C\C=C\[C@@H](C)c1ccccn1)[C@H]1OC(=O)C[C@H](O)CC[C@@](C)(O)[C@@H](OC(=O)N2CCC(N3CC4CCC(C3)C4(F)F)CC2)/C=C/[C@@H]1C	-90.3	76.1	47.3		
CC[C@H](O)[C@@H](C)[C@H]1O[C@@H]1C[C@H](C)/C=C/C=C(\C)[C@H]1OC(=O)C[C@H](O)CC[C@@](C)(OC(C)=O)[C@@H](OC(=O)N2CCNCC2)/C=C/[C@@H]1C	-47.1	2.05	2.12		
CC[C@H](O)[C@@H](C)[C@H]1O[C@@H]1C[C@H](C)/C=C/C=C(\C)[C@H]1OC(=O)C[C@H](O)CC[C@@](C)(OC(=O)N2CCNCC2)[C@@H](OC(C)=O)/C=C/[C@@H]1C	-78.9	0.86	2.08		
CC[C@H](O)[C@@H](C)[C@H]1O[C@@H]1C[C@@](C)(O)/C=C/C=C(\C)[C@H]1OC(=O)C[C@H](O)CC[C@@](C)(OC)[C@@H](OC(=O)N(C)CCNC)/C=C/[C@@H]1C			18.3		
CC[C@H](O)[C@@H](C)[C@H]1O[C@@H]1C[C@@](C)(O)/C=C/C=C(\C)[C@H]1OC(=O)C[C@H](O)CC[C@@](C)(OC)[C@@H](OC(=O)N2CCNC(CCC(=O)O)C2)/C=C/[C@@H]1C (some centres unmarked)			29.2		
CC[C@H](O)[C@@H](C)[C@H]1O[C@@H]1C[C@H](C)/C=C/C=C(\C)[C@H]1OC(=O)C[C@H](O)CC[C@@](C)(OC)[C@@H](OC(=O)N2CCNCC2)/C=C/[C@@H]1C			0.99		
C/C(=C\C=C\[C@@H](C)c1ccccn1)[C@H]1OC(=O)C[C@H](O)CC[C@@](C)(O)[C@@H](OC(=O)N2CC[N+](C)([O-])CC2)/C=C/[C@@H]1C	-81.2	45.4	5.89		
CCO[C@]1(C)CC[C@@H](O)CC(=O)O[C@H](/C(C)=C/C=C/[C@](C)(O)C[C@H]2O[C@@H]2[C@H](C)[C@@H](O)CC)[C@@H](C)/C=C/[C@@H]1OC(=O)N1CCNCC1	-75.4	1.76	9.23		
CC[C@H](O)[C@@H](C)[C@H]1O[C@@H]1C[C@@](C)(O)/C=C/C=C(\C)[C@H]1OC(=O)C[C@H](O)CC[C@@](C)(OC(C)=O)[C@@H](OC(=O)N2CCN(CCO)CC2)/C=C/[C@@H]1C			24.3		
CC[C@H](O)[C@@H](C)[C@H]1O[C@@H]1C[C@@](C)(O)/C=C/C=C(\C)[C@H]1OC(=O)C[C@H](O)CC[C@@](C)(OC)[C@@H](OC(=O)N2CCN(CCCC(=O)O)CC2)/C=C/[C@@H]1C			14.6		
CC[C@H](O)[C@@H](C)[C@H]1O[C@@H]1C[C@H](C)/C=C/C=C(\C)[C@H]1OC(=O)C[C@H](O)CC[C@@](C)(OC)[C@@H](OC(=O)N2CCN(C)CC2)/C=C/[C@@H]1C			1.52		
CC[C@H](O)[C@@H](C)[C@H]1O[C@@H]1C[C@@](C)(O)/C=C/C=C(\C)[C@H]1OC(=O)C[C@H](O)CC[C@@](C)(OC(=O)N2CCNCC2)[C@@H](OC(C)=O)/C=C/[C@@H]1C	-74.2	23.5	5.92		
CC(=O)O[C@H]1/C=C/[C@H](C)[C@@H](/C(C)=C/C=C/C(c2ccccn2)C(C)C)OC(=O)C[C@H](O)CC[C@@]1(C)O (some centres unmarked)			20.9		
CC[C@H](O)[C@@H](C)[C@H]1O[C@@H]1C[C@@](C)(O)/C=C/C=C(\C)[C@H]1OC(=O)C[C@H](O)CC[C@@](C)(OC(C)=O)[C@@H](OC(=O)N2C[C@@H]3C[C@H]2CN3)/C=C/[C@@H]1C			16		
CC[C@H](O)[C@@H](C)[C@H]1O[C@@H]1C[C@@](C)(O)/C=C/C=C(\C)[C@H]1OC(=O)C[C@H](O)CC[C@@](C)(OC(C)=O)[C@@H](OC(=O)N2CCNCC2)/C=C/[C@@H]1C	-73.2	26.8	8.78		
C/C(=C\C=C\[C@@H](C)COC(=O)N1CC[C@H](C)C1)[C@H]1OC(=O)C[C@H](O)CC[C@@](C)(O)[C@@H](OC(=O)N2CCN(C3CCCCCC3)CC2)/C=C/[C@@H]1C	-93.6	2.59		6.2	> 1000
